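Protocol summary: plate cells (96-well), add compound at 5 concentrations, incubate 48 h, interpolate endpoints linearly. The concentration for full growth arrest is given as TGI.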
System: 786-0 renal
Assay: NCI anticancer screen, dose series, 48 h

Row | SMILES | TGI [µM]
1 | O/N=C(\c1ccccc1)N1CCCCC1 | > 100

System: MCF7 breast
Assay: NCI anticancer screen, dose series, 48 h

Row | SMILES | TGI [µM]
2 | C=C1C(=O)C23CC1C[C@H](OC(C)=O)[C@H]2C1(C)C(OC(C)=O)C[C@H](O)C(C)(C)[C@H]1C(=O)[C@@H]3OC(C)=O (stereo partly specified) | 14
3 | O=C1NC(=O)C(Cc2ccccc2)(c2cccnc2)N1 (stereo unspecified) | > 100
4 | COc1ccc(/C=C2\CCC(CNc3cc(C)on3)C2=O)cc1 (stereo unspecified) | > 100
5 | COC(=O)C(Cc1c[nH]c2ccccc12)N=C1Nc2ccncc2S(=O)(=O)N1c1ccccc1 (stereo unspecified) | > 100

System: RPMI-8226 leukemia
Assay: NCI anticancer screen, dose series, 48 h

Row | SMILES | TGI [µM]
6 | COc1cc(/C=C(\C#N)C(=O)c2ccccc2)ccc1OCc1ccccc1 | > 100
7 | C=C1C(=O)C23CC1C[C@H](OC(C)=O)[C@H]2C1(C)C(OC(C)=O)C[C@H](O)C(C)(C)[C@H]1C(=O)[C@@H]3OC(C)=O (stereo partly specified) | 4.81
8 | O=C1NC(=O)C(Cc2ccccc2)(c2cccnc2)N1 (stereo unspecified) | > 100
9 | COC(=O)c1s/c(=N\C(=S)N(C)C)n(-c2ccccc2)c1C(=O)OC | > 100
10 | COc1ccc(/C=C2\CCC(CNc3cc(C)on3)C2=O)cc1 (stereo unspecified) | > 100
11 | COC(=O)C(Cc1c[nH]c2ccccc12)N=C1Nc2ccncc2S(=O)(=O)N1c1ccccc1 (stereo unspecified) | 29.3

System: MDA-MB-435
Assay: NCI anticancer screen, dose series, 48 h

Row | SMILES | TGI [µM]
12 | C=C1C(=O)C23CC1C[C@H](OC(C)=O)[C@H]2C1(C)C(OC(C)=O)C[C@H](O)C(C)(C)[C@H]1C(=O)[C@@H]3OC(C)=O (stereo partly specified) | 11.4
13 | O=C1NC(=O)C(Cc2ccccc2)(c2cccnc2)N1 (stereo unspecified) | > 100
14 | COc1ccc(/C=C2\CCC(CNc3cc(C)on3)C2=O)cc1 (stereo unspecified) | > 100
15 | COC(=O)C(Cc1c[nH]c2ccccc12)N=C1Nc2ccncc2S(=O)(=O)N1c1ccccc1 (stereo unspecified) | 87.3

System: OVCAR-8 ovarian
Assay: NCI anticancer screen, dose series, 48 h

Row | SMILES | TGI [µM]
16 | COc1cc(/C=C(\C#N)C(=O)c2ccccc2)ccc1OCc1ccccc1 | > 100
17 | C=C1C(=O)C23CC1C[C@H](OC(C)=O)[C@H]2C1(C)C(OC(C)=O)C[C@H](O)C(C)(C)[C@H]1C(=O)[C@@H]3OC(C)=O (stereo partly specified) | 7.9
18 | O=C1NC(=O)C(Cc2ccccc2)(c2cccnc2)N1 (stereo unspecified) | > 100
19 | COC(=O)c1s/c(=N\C(=S)N(C)C)n(-c2ccccc2)c1C(=O)OC | > 100
20 | COc1ccc(/C=C2\CCC(CNc3cc(C)on3)C2=O)cc1 (stereo unspecified) | > 100
21 | COC(=O)C(Cc1c[nH]c2ccccc12)N=C1Nc2ccncc2S(=O)(=O)N1c1ccccc1 (stereo unspecified) | > 100
22 | O/N=C(\c1ccccc1)N1CCCCC1 | > 100

System: SK-OV-3 ovarian
Assay: NCI anticancer screen, dose series, 48 h

Row | SMILES | TGI [µM]
23 | COc1cc(/C=C(\C#N)C(=O)c2ccccc2)ccc1OCc1ccccc1 | > 100
24 | C=C1C(=O)C23CC1C[C@H](OC(C)=O)[C@H]2C1(C)C(OC(C)=O)C[C@H](O)C(C)(C)[C@H]1C(=O)[C@@H]3OC(C)=O (stereo partly specified) | 32
25 | O=C1NC(=O)C(Cc2ccccc2)(c2cccnc2)N1 (stereo unspecified) | > 100
26 | COC(=O)c1s/c(=N\C(=S)N(C)C)n(-c2ccccc2)c1C(=O)OC | > 100
27 | COc1ccc(/C=C2\CCC(CNc3cc(C)on3)C2=O)cc1 (stereo unspecified) | > 100
28 | COC(=O)C(Cc1c[nH]c2ccccc12)N=C1Nc2ccncc2S(=O)(=O)N1c1ccccc1 (stereo unspecified) | > 100

System: MDA-N
Assay: NCI anticancer screen, dose series, 48 h

Row | SMILES | TGI [µM]
29 | C=C1C(=O)C23CC1C[C@H](OC(C)=O)[C@H]2C1(C)C(OC(C)=O)C[C@H](O)C(C)(C)[C@H]1C(=O)[C@@H]3OC(C)=O (stereo partly specified) | 10.7
30 | O=C1NC(=O)C(Cc2ccccc2)(c2cccnc2)N1 (stereo unspecified) | > 100
31 | COc1ccc(/C=C2\CCC(CNc3cc(C)on3)C2=O)cc1 (stereo unspecified) | > 100
32 | COC(=O)C(Cc1c[nH]c2ccccc12)N=C1Nc2ccncc2S(=O)(=O)N1c1ccccc1 (stereo unspecified) | > 100

System: MDA-MB-231 breast
Assay: NCI anticancer screen, dose series, 48 h

Row | SMILES | TGI [µM]
33 | C=C1C(=O)C23CC1C[C@H](OC(C)=O)[C@H]2C1(C)C(OC(C)=O)C[C@H](O)C(C)(C)[C@H]1C(=O)[C@@H]3OC(C)=O (stereo partly specified) | 11.7
34 | O=C1NC(=O)C(Cc2ccccc2)(c2cccnc2)N1 (stereo unspecified) | > 100
35 | COc1ccc(/C=C2\CCC(CNc3cc(C)on3)C2=O)cc1 (stereo unspecified) | > 100
36 | COC(=O)C(Cc1c[nH]c2ccccc12)N=C1Nc2ccncc2S(=O)(=O)N1c1ccccc1 (stereo unspecified) | > 100

System: CCRF-CEM leukemia
Assay: NCI anticancer screen, dose series, 48 h

Row | SMILES | TGI [µM]
37 | COc1cc(/C=C(\C#N)C(=O)c2ccccc2)ccc1OCc1ccccc1 | > 100
38 | C=C1C(=O)C23CC1C[C@H](OC(C)=O)[C@H]2C1(C)C(OC(C)=O)C[C@H](O)C(C)(C)[C@H]1C(=O)[C@@H]3OC(C)=O (stereo partly specified) | 7.65
39 | O=C1NC(=O)C(Cc2ccccc2)(c2cccnc2)N1 (stereo unspecified) | > 100
40 | COc1ccc(/C=C2\CCC(CNc3cc(C)on3)C2=O)cc1 (stereo unspecified) | > 100
41 | COC(=O)C(Cc1c[nH]c2ccccc12)N=C1Nc2ccncc2S(=O)(=O)N1c1ccccc1 (stereo unspecified) | 32.2

System: SR leukemia
Assay: NCI anticancer screen, dose series, 48 h

Row | SMILES | TGI [µM]
42 | COc1cc(/C=C(\C#N)C(=O)c2ccccc2)ccc1OCc1ccccc1 | > 100
43 | C=C1C(=O)C23CC1C[C@H](OC(C)=O)[C@H]2C1(C)C(OC(C)=O)C[C@H](O)C(C)(C)[C@H]1C(=O)[C@@H]3OC(C)=O (stereo partly specified) | > 24.7
44 | O=C1NC(=O)C(Cc2ccccc2)(c2cccnc2)N1 (stereo unspecified) | > 100
45 | COc1ccc(/C=C2\CCC(CNc3cc(C)on3)C2=O)cc1 (stereo unspecified) | > 100
46 | COC(=O)C(Cc1c[nH]c2ccccc12)N=C1Nc2ccncc2S(=O)(=O)N1c1ccccc1 (stereo unspecified) | 42.1

Source: PubChem BioAssay (NCI)
